In publication PMC6853154 (Clinical and Translational Science, 2019):
Entries after “also recorded” stand apart in the source; their conditions may differ. Like-named read-outs stand apart in the source and are kept apart here.

Experiments:
[1] = assay type: in vivo, human; settings: for AUC(0-inf) / Cmax / Tmax / half-life: human, plasma, po; for AUC0–∞, mean percent change / Cmax, mean percent change / t1/2, mean percent change: multiple doses vs single dose of efavirenz
CYP1A2 [2] = settings: coadministration of potent CYP1A2 inhibitor; cited from earlier work
CYP1A2 [3] = molecular target: T1, CYP1A2 (Homo sapiens, UniProt P05177); experiment: In vivo CYP1A2 activity from plasma paraxanthine/caffeine metabolic ratio
T1 sequence (P05177 1-516): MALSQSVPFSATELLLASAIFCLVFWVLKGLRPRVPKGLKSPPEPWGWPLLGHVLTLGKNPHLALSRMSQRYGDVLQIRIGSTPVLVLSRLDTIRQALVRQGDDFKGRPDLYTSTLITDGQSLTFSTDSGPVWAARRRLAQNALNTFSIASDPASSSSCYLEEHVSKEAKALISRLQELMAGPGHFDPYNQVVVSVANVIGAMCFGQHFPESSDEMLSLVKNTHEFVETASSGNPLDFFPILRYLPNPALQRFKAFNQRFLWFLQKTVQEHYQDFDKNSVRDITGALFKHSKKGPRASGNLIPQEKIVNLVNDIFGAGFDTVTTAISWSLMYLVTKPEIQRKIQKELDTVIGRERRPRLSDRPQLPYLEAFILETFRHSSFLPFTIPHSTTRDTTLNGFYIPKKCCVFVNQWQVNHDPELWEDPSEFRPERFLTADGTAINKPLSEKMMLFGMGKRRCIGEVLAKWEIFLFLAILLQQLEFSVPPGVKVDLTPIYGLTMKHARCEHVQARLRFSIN

CYP1A2 [4] = molecular target: T1, CYP1A2; experiment: In vivo CYP1A2 activity from urinary caffeine metabolic ratio
CYP2A6 [5] = experiment: In vivo CYP2A6 activity from urinary caffeine metabolic ratio; design: species or system human
xanthine oxidase (XO) = xanthine oxidase (XO) (Homo sapiens, UniProt P47989); experiment: In vivo xanthine oxidase activity from urinary caffeine metabolic ratio; settings: for XO activity, urinary MR (1 MU)/(1 MX + 1 MU): mean ± SD
[6] = molecular target: T2, N‐acetyltransferase 2 (NAT2) (Homo sapiens, UniProt P11245); experiment: In vivo NAT2 activity from urinary caffeine metabolic ratio; settings: for NAT2 activity, urinary MR AFMU/(AFMU + 1 MU + 1 MX): mean ± SD
T2 sequence (P11245 1-290): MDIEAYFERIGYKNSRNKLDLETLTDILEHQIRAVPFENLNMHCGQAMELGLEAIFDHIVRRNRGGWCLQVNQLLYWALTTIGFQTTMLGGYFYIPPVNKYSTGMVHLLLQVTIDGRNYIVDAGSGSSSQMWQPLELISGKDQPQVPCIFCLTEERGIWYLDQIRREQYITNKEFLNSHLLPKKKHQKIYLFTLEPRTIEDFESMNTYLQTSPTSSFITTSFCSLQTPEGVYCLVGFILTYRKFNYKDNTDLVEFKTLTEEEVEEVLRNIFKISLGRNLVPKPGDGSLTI

[7] = cited from earlier work
CYP1A2 [8] = molecular target: T1, CYP1A2; settings: human liver microsomal preparations and/or expressed enzymes; cited from earlier work
CYP2A6 [9] = settings: human liver microsomal preparations and/or expressed enzymes; cited from earlier work
CYP2B6 = settings: at therapeutically relevant concentrations; cited from earlier work
CYP2C8 = settings: at therapeutically relevant concentrations; cited from earlier work
CYP2C19 = settings: at therapeutically relevant concentrations; cited from earlier work
CYP2C9 = settings: at therapeutically relevant concentrations; cited from earlier work
[10] = HIV/tuberculosis‐coinfected patients, cited from earlier work
[11] = Efavirenz plasma exposure in healthy volunteers, also by CYP2B6 genotype; settings: following a single dose and multiple doses of efavirenz
[12] = after multiple doses of efavirenz
[13] = chronic efavirenz relative to single‐dose phase
[14] = multiple doses vs single dose of efavirenz
[15] = multiple doses relative to single‐dose efavirenz
[16] = multiple doses of efavirenz (600 mg/day, 17 days)

Sequence of xanthine oxidase (XO) (P47989 whole entry): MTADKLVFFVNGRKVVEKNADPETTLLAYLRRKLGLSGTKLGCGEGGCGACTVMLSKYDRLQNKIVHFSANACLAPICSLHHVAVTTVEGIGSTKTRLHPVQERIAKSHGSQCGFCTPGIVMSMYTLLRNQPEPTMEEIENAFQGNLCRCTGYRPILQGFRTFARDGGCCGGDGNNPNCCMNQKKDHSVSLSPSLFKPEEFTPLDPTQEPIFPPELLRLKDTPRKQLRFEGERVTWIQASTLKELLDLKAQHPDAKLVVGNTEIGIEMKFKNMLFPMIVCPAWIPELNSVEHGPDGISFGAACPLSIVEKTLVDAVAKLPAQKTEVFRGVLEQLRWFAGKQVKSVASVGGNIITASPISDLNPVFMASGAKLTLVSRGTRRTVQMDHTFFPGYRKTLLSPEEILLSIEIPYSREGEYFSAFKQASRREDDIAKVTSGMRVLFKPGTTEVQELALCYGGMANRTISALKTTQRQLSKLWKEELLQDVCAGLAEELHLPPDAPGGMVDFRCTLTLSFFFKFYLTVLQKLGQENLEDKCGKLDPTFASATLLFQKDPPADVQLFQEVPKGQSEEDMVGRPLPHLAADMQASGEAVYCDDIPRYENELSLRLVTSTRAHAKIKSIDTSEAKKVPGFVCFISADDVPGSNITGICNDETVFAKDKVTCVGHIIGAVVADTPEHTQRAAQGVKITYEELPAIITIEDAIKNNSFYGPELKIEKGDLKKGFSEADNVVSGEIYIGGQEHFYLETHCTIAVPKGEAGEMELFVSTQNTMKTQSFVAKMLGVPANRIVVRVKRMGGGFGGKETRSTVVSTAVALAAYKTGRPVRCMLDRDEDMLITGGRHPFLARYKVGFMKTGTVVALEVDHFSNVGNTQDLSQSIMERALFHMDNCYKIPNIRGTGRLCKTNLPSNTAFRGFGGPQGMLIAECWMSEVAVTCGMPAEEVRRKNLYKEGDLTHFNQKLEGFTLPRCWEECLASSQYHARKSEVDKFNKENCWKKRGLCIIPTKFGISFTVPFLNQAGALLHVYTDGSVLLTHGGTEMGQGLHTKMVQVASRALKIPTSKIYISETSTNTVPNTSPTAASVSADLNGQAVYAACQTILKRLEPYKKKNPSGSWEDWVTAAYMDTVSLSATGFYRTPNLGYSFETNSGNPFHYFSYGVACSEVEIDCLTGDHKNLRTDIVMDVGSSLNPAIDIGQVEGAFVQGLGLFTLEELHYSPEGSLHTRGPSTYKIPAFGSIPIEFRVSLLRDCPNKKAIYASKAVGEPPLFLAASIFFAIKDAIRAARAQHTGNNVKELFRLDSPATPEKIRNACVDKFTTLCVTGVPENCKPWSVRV

Cn1c(=O)c2c(ncn2C)n(C)c1=O [Caffeine]
Caffeine AUC0‐∞ by CYP2B6 genotype, in words ([1]; both efavirenz treatment groups, compared with *1/*1 genotype): significantly higher for *6/*6 genotype
AUC(0-inf) [1]: 17300 ± 11600 ng·h/mL
Cmax [1]: 1820 ng/mL
Tmax [1]: 1 h
half-life [1]: 7.61 ± 8.29 h
AUC(0-inf) ([1]; 150 mg): 22700 ± 18400 ng·h/mL
Cmax ([1]; 150 mg): 1900 ng/mL
Tmax ([1]; 150 mg): 1 h
half-life ([1]; 150 mg): 8.87 ± 4.98 h
AUC0–∞, mean percent change [1]: 46.2%
Cmax, mean percent change [1]: 17.4%
t1/2, mean percent change [1]: 32.5%

Cn1c(=O)[nH]c2ncn(C)c2c1=O [Paraxanthine, 1,7‐dimethylxanthine]
AUC(0-inf) [1]: 10800 ± 6100 ng·h/mL
Cmax [1]: 504 ± 236 ng/mL
Tmax [1]: 7 h
half-life [1]: 10.8 ± 9.21 h
AUC(0-inf) ([1]; 150 mg): 8600 ± 5800 ng·h/mL
Cmax ([1]; 150 mg): 358 ± 208 ng/mL
Tmax ([1]; 150 mg): 7 h
half-life ([1]; 150 mg): 12.2 ± 7.88 h
AUC0–∞, mean percent change [1]: −8.6%
Cmax, mean percent change [1]: −24.5%
t1/2, mean percent change [1]: 26.3%

COCCCC/C(=N\OCCN)c1ccc(C(F)(F)F)cc1 [fluvoxamine]
Increase of plasma exposure of tizanidine (CYP1A2 [2]): up to 30 fold

O=C1Nc2ccc(Cl)cc2[C@@](C#CC2CC2)(C(F)(F)F)O1 [efavirenz]
Correlation (r s) of CYP1A2 activity with efavirenz AUC0–24 h (CYP1A2 [3]; [12]): −0.61
Correlation (r s) of percent change in CYP1A2 activity with efavirenz AUC0–24 h (CYP1A2 [3]; [12]): −0.41
Decrease of CYP1A2 activity (plasma MRs) (CYP1A2 [3]; [13]): 38%
Interindividual range of percent change in CYP1A2 activity (plasma MRs) (CYP1A2 [3]; chronic efavirenz relative to single‐dose phase, 58 subjects): −78.2% to 31.7
CYP1A2 activity, plasma MR, mean percent change (CYP1A2 [3]; [14]): −38.1%
Correlation (r s) of CYP1A2 activity with efavirenz AUC0–∞ (CYP1A2 [3]; single 600 mg dose of efavirenz): −0.32
Decrease of CYP1A2 activity measured by urinary MRs (CYP1A2 [4]; [13]): 28.9%
Interindividual range of percent change in urine MR (CYP1A2) (CYP1A2 [4]; [13]): −65.1% to 43.2
CYP1A2 activity, urinary MR, mean percent change (CYP1A2 [4]; [14]): −28.9%
Increase of CYP2A6 activity (CYP2A6 [5]; [15]): 85%
CYP2A6 activity, urinary MR, mean percent change (CYP2A6 [5]; [14]): 85.5%
XO activity, urinary MR (1 MU)/(1 MX + 1 MU) (xanthine oxidase (XO); [16]): 0.37 ± 0.16
Effect on XO activity (urinary MR), in words (xanthine oxidase (XO); [15]): unaffected; also recorded: not significantly altered
XO activity, urinary MR, mean percent change (xanthine oxidase (XO); [14]): 1.1%
XO activity, urinary MR (1 MU)/(1 MX + 1 MU) (xanthine oxidase (XO); single 600 mg efavirenz dose): 0.37 ± 0.16
NAT2 activity, urinary MR AFMU/(AFMU + 1 MU + 1 MX) [6, 16]: 0.32 ± 0.22
Effect on NAT2 activity (urinary MR), in words [6, 15]: unaffected; also recorded: not significantly altered
NAT2 activity, urinary MR, mean percent change [6, 14]: 4.5%
NAT2 activity, urinary MR AFMU/(AFMU + 1 MU + 1 MX) ([6]; single 600 mg efavirenz dose): 0.31 ± 0.21
Efavirenz exposure (AUC0–24), fold higher in CYP2B6*6/*6 vs CYP2B6*1/*1 ([7]; multiple doses of efavirenz): 2.5 fold
Efavirenz exposure (AUC0–24), fold higher in CYP2B6*6/*6 vs CYP2B6*1/*6 ([7]; multiple doses of efavirenz): 2 fold
Efavirenz exposure (AUC0–∞), fold higher in CYP2B6*6/*6 vs CYP2B6*1/*1 ([7]; single dose of efavirenz): 2.1 fold
Efavirenz exposure (AUC0–∞), fold higher in CYP2B6*6/*6 vs CYP2B6*1/*6 ([7]; single dose of efavirenz): 1.8 fold
Inhibition/inactivation of CYP1A2 activity in vitro, in words (CYP1A2 [8]): does not inhibit/inactivate; also recorded: neither a reversible inhibitor nor a mechanism‐based (i.e., time‐dependent) inactivator
Inhibition/inactivation of CYP2A6 activity in vitro, in words (CYP2A6 [9]): does not inhibit/inactivate
Inhibition of CYP2B6 in vitro, in words (CYP2B6): directly inhibits
Inhibition of CYP2C8 in vitro, in words (CYP2C8): directly inhibits
Inhibition of CYP2C19 in vitro, in words (CYP2C19): directly inhibits
Inhibition of CYP2C9 in vitro, in words (CYP2C9): directly inhibits
Reduction of model‐predicted exposure of isoniazid by efavirenz ([10]; fast acetylators): 29%
Effect of efavirenz on model‐predicted exposure of isoniazid, in words ([10]; slow acetylators): no effect
Between‐subject differences in efavirenz exposure [11]: Approximately sevenfold

O=C1Nc2c(O)cc(Cl)cc2[C@@](C#CC2CC2)(C(F)(F)F)O1 [8‐hydroxyefavirenz]
Inhibition/inactivation of CYP1A2 activity in vitro, in words (CYP1A2 [8]): no effect
